Results on 19 molecules are retold here after PubChem BioAssay AID330 (DTP/NCI, 2004).

Values joined by “and” are separate entries in the source; they are usually repeats but may differ in a detail not shown here. Equal values may be shown once. Inconclusive results and toxic doses are left out.

The test system of the test is P388 leukemia ip, CD2F1 mice, survival T/C. The test is described as follows: NCI In Vivo Anticancer Drug Screen. Data for tumor model P388 Leukemia (intraperitoneal) in CD2F1 (CDF1) mice. The note with it: endpoint: median survival time, higher = longer survival. A digest of the protocol: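 Mice carrying the transplanted tumor received test compound or vehicle. Survival was recorded in each group, and the value is the treated-group measurement divided by that of the vehicle-treated control group.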

Setting [1] is: dose: 60.0 mg/kg/injection, schedule: Q01DX005 (ip), vehicle: saline with Tween-80.
[2] abbreviates: dose: 120.0 mg/kg/injection, schedule: Q01DX005 (ip), vehicle: saline with Tween-80.
The mark [3] stands for this setting: dose: 25.0 mg/kg/injection, schedule: Q01DX005 (ip), vehicle: Klucel (hydroxypropylcellulose) (HPC).
[4] abbreviates: dose: 50.0 mg/kg/injection, schedule: Q01DX005 (ip), vehicle: Klucel (hydroxypropylcellulose) (HPC).
Setting [5] is: dose: 100.0 mg/kg/injection, schedule: Q01DX005 (ip), vehicle: Klucel (hydroxypropylcellulose) (HPC).
Where [6] appears, read: dose: 200.0 mg/kg/injection, schedule: Q01DX005 (ip), vehicle: Klucel (hydroxypropylcellulose) (HPC).
The mark [7] stands for this setting: dose: 50.0 mg/kg/injection, schedule: Q01DX005 (ip), vehicle: saline with Tween-80.
[8] abbreviates: dose: 100.0 mg/kg/injection, schedule: Q01DX005 (ip), vehicle: saline with Tween-80.
The mark [9] stands for this setting: dose: 200.0 mg/kg/injection, schedule: Q01DX005 (ip), vehicle: saline with Tween-80.
[10] abbreviates: dose: 6.25 mg/kg/injection, schedule: Q01DX009 (ip), vehicle: saline with Tween-80.
Setting [11] is: dose: 25.0 mg/kg/injection, schedule: Q01DX009 (ip), vehicle: saline with Tween-80.
Where [12] appears, read: dose: 240.0 mg/kg/injection, schedule: Q01DX005 (ip), vehicle: saline with Tween-80.

With `O=[n+]1c2c(n([O-])c3cc(Cl)c(Cl)cc31)CCC2`, the T/C reads like this: under setting [1], 95 % of control; under setting [2], 95 % of control.

Turning to `COc1cccc(CCN2C(=O)CCC3=C2CCC3=O)c1`, the T/C runs as follows: under setting [3], 94 % of control; under setting [4], 105 % of control; under setting [5], 102 % of control; under setting [6], 98 % of control.

With `C=C1C(=O)OC2C1C(OC(=O)/C(C)=C/C)CC1(C)C(O)CCC(=C)C21` (configuration not stated), the T/C (dose: 12.5 mg/kg/injection, schedule: Q01DX005 (ip), vehicle: Klucel (hydroxypropylcellulose) (HPC)) was 106 % of control; the T/C under setting [3] was 107 % of control; the T/C under setting [4] was 114 % of control; the T/C under setting [5] was 107 % of control; the T/C under setting [6] is 98 % of control.

Turning to `CNC(=S)P(c1ccccc1)c1ccccc1`, the T/C was 105 % of control under setting [4], 96 % of control under setting [5] and 105 % of control under setting [6].

On to `CC1C(=O)OC2CC[N+]3(C(=O)C(F)(F)F)CC4OC4(COC(=O)C(C)(O)C1(C)O)C23` (configuration not stated), for which the T/C by setting is: (dose: 60.0 mg/kg/injection, schedule: Q01DX005 (ip), vehicle: suspension in saline) 104 % of control; (dose: 120.0 mg/kg/injection, schedule: Q01DX005 (ip), vehicle: suspension in saline) 93 % of control; (dose: 240.0 mg/kg/injection, schedule: Q01DX005 (ip), vehicle: suspension in saline) 92 % of control.

For the molecule `CSCNC(=O)Nc1ccccc1`, the T/C under setting [7] was 98 % of control, the T/C under setting [8] is 100 % of control and the T/C under setting [9] was 104 % of control.

Regarding `Cc1ccnc(N=C2N=C(Nc3cc(C)ccn3)c3ccccc32)c1`, the T/C was 93 % of control under setting [10]; 88 % of control (dose: 12.5 mg/kg/injection, schedule: Q01DX009 (ip), vehicle: saline with Tween-80); 99 % of control under setting [11]; 91 % of control (dose: 100.0 mg/kg/injection, schedule: Q01DX009 (ip), vehicle: saline with Tween-80); 90 % of control (dose: 200.0 mg/kg/injection, schedule: Q01DX009 (ip), vehicle: saline with Tween-80).

As for `CN(C)CCCN1c2ccccc2Sc2ccc(Cl)cc21`, the T/C (dose: 1.0 mg/kg/injection, schedule: Q01DX005 (ip), vehicle: saline) was 99 % of control; the T/C (dose: 2.0 mg/kg/injection, schedule: Q01DX005 (ip), vehicle: saline) was 96 % of control; the T/C (dose: 4.0 mg/kg/injection, schedule: Q01DX005 (ip), vehicle: saline) was 104 % of control; the T/C under setting [10] was 95 % of control; the T/C (dose: 7.5 mg/kg/injection, schedule: Q04DX003 (ip), vehicle: saline) was 112 % of control; the T/C (dose: 8.0 mg/kg/injection, schedule: Q01DX005 (ip), vehicle: saline) was 106 % of control. Also, the T/C reads like this: (dose: 12.5 mg/kg/injection, schedule: Q04DX003 (ip), vehicle: Klucel (hydroxypropylcellulose) (HPC)) 111 % of control; (dose: 12.5 mg/kg/injection, schedule: Q04DX003 (ip), vehicle: saline) 108 % of control and 113 % of control and 120 % of control; (dose: 15.0 mg/kg/injection, schedule: Q04DX003 (ip), vehicle: saline) 120 % of control; (dose: 16.0 mg/kg/injection, schedule: Q01DX005 (ip), vehicle: saline) 106 % of control; under setting [11], 100 % of control; (dose: 25.0 mg/kg/injection, schedule: Q04DX003 (ip), vehicle: saline) 111 % of control and 114 % of control and 118 % of control. For the same molecule, the T/C is, setting by setting: (dose: 32.0 mg/kg/injection, schedule: Q01DX005 (ip), vehicle: saline) 116 % of control; (dose: 50.0 mg/kg/injection, schedule: Q04DX003 (ip), vehicle: Klucel (hydroxypropylcellulose) (HPC)) 108 % of control; (dose: 50.0 mg/kg/injection, schedule: Q04DX003 (ip), vehicle: saline) 105 % of control; (dose: 64.0 mg/kg/injection, schedule: Q01DX005 (ip), vehicle: saline) 105 % of control; (dose: 100.0 mg/kg/injection, schedule: Q04DX003 (ip), vehicle: saline) 99 % of control.

As for `O=c1[nH]c2cc(Cl)ccc2nc1/C=C(\O)c1ccc2ccccc2c1`, the T/C runs as follows: under setting [1], 89 % of control; under setting [2], 89 % of control; under setting [12], 110 % of control.

Consider `CC(C)S(=O)(=O)n1c(N)nc2ccc(/C(=N/O)c3ccccc3)cc21`, for which the T/C was 100 % of control under setting [4], 101 % of control under setting [5] and 95 % of control under setting [6].

With `COc1ccc(Cc2cc(C(C)(C)C)c(O)c(C(C)(C)C)c2)cc1`, the T/C (dose: 50.0 mg/kg/injection, schedule: Q01DX005 (ip), vehicle: distilled water + alcohol) was 104 % of control; the T/C (dose: 100.0 mg/kg/injection, schedule: Q01DX005 (ip), vehicle: distilled water + alcohol) is 100 % of control; the T/C (dose: 200.0 mg/kg/injection, schedule: Q01DX005 (ip), vehicle: distilled water + alcohol) was 93 % of control.

For the molecule `Nc1nc(N)c(-c2ccc(Cl)c(Cl)c2)c(COc2cccc(CNC(=O)c3cccc(S(=O)(=O)F)c3)c2)n1`, the T/C is, setting by setting: (dose: 100.0 mg/kg/injection, schedule: Q04DX003 (ip), vehicle: Klucel (hydroxypropylcellulose) (HPC)) 110 % of control; (dose: 400.0 mg/kg/injection, schedule: Q04DX003 (ip), vehicle: Klucel (hydroxypropylcellulose) (HPC)) 120 % of control.

As to `CC(C)(C(=O)O[Si](C)(C)C)/C(=C/[Si](C)(C)C)O[Si](C)(C)C`, the T/C was 103 % of control (dose: 100.0 mg/kg/injection, schedule: Q01DX001 (ip), vehicle: saline with Tween-80); 99 % of control (dose: 200.0 mg/kg/injection, schedule: Q01DX001 (ip), vehicle: saline with Tween-80); 102 % of control (dose: 400.0 mg/kg/injection, schedule: Q01DX001 (ip), vehicle: saline with Tween-80).

Consider `O=C(Nc1cccc(Cl)c1)Nc1ccc(Sc2ccc(Cl)cc2)o1`, for which the T/C is, setting by setting: under setting [7], 97 % of control; under setting [8], 88 % of control; under setting [9], 92 % of control.

On to `CC(=O)Nc1c(Br)cc(Br)c2c1C(=O)c1ccccc1-2`, for which the T/C under setting [4] was 91 % of control, the T/C under setting [5] is 91 % of control and the T/C under setting [6] was 97 % of control.

Take `O=C(O)C12C3C4C5C3C3(OCCO3)C1(Br)C5C42` (configuration not stated): the T/C was 100 % of control under setting [1], 102 % of control under setting [2] and 107 % of control under setting [12].

As for `COc1cccc2c1C(=O)c1c(O)c3c(c(O)c1C2=O)C[C@@](O)(C(O)CO)C[C@@H]3OC1CC(NCc2ccccc2)C(O)C(C)O1` (some centres not stated), the T/C is 158 % of control and 167 % of control (dose: 0.39 mg/kg/injection, schedule: Q01DX009 (ip), vehicle: water); 157 % of control and 162 % of control and 169 % of control (dose: 0.78 mg/kg/injection, schedule: Q01DX009 (ip), vehicle: water); 106 % of control (dose: 1.18 mg/kg/injection, schedule: Q04DX003 (ip), vehicle: water); 157 % of control and 190 % of control and 196 % of control (dose: 1.56 mg/kg/injection, schedule: Q01DX009 (ip), vehicle: water); 106 % of control (dose: 2.35 mg/kg/injection, schedule: Q04DX003 (ip), vehicle: water); 163 % of control and 176 % of control and 192 % of control (dose: 3.13 mg/kg/injection, schedule: Q01DX009 (ip), vehicle: water). Also, the T/C (dose: 9.4 mg/kg/injection, schedule: Q04DX003 (ip), vehicle: water) was 116 % of control.

`COc1ccc(OC)c(/C=C2/C(=O)ON=C2C)c1`: the T/C was 114 % of control under setting [1] and 111 % of control under setting [2].

With `Nc1nccn2cnnc12`, the T/C reads like this: (dose: 100.0 mg/kg/injection, schedule: Q01DX001 (ip), vehicle: Klucel (hydroxypropylcellulose) (HPC)) 100 % of control; (dose: 200.0 mg/kg/injection, schedule: Q01DX001 (ip), vehicle: Klucel (hydroxypropylcellulose) (HPC)) 104 % of control; (dose: 400.0 mg/kg/injection, schedule: Q01DX001 (ip), vehicle: Klucel (hydroxypropylcellulose) (HPC)) 100 % of control.
